Here are results for 15 compounds from patent US9434741B2, “Thieno[2,3-d]pyrimidine derivatives, preparation method and use thereof” (FUJIAN INSTITUTE OF RESEARCH ON THE STRUCTURE OF MATTER, …, priority 2012, dated 2016).

Assay [1] deals with human lung cancer cell lines (A549). The assay is described as follows: SRB screening of inhibitory activity against human lung cancer cell lines (A549). Type of assay: cell-based. Particulars: A549 cells, compound concentration 1×10^−4 M, SRB method; for inhibition at 100 µM: Homo sapiens, 72 h, read-out: Inhibitory ratio (%). From the text:
(§1) The inhibitory activity against colon cancer cell lines (HCT-116) and human lung cancer cell lines (A549) were screened with an SRB method. The procedure of screening was described in the reference (Li M. H., Miao Z. H., Tan W. F. et al. Clin. Cancer Res. 2004, 10(24): 8266-8274).
(§2) Detailed experimental procedure is as follows:
(§3) (1) According to the growth rate of tumor cells, colon cancer cell lines (HCT-116) in logarithmic growth phase were inoculated in 96-well culture plates and allowed to adhere to the wall for 24 h. The medicants with a concentration of 1×10^−4 M were added. Three replicate wells were set for the concentration, and saline control and non-apoptotic well of the corresponding concentration were set. The tumor/cancer cells were incubated for 72 hours at 37 in 5% CO2; (2) the plates were taken out, and the cells were fixed in each well with 10% cold […] (TCA) solution at 4 for 1 hour; (3) the fixation fluid was removed, and the plates were rinsed 5 times with distilled water and naturally dried in air; (4) SRB solution prepared from glacial acetic acid (1%) was added to stain at room temperature for 15 min; (5) the supernatant was removed, and the residue was washed 5 times with 1% acetic acid and air-dried; (6) finally Tris solution was added and the plates were shaken on a plate shaker for 5 min. Absorbance value at 560 nm (A560) was determined by using a wavelength-tunable microplate reader. Enzyme inhibitory ratio was calculated with the following formula: […]
(§4) The activities of the compounds represented by formula (I) or salts thereof of inhibiting colon cancer cell lines (HCT-116) and human lung cancer cell lines A549 at a concentration of 1×10^−4 M were determined.
A general note: In SRB staining, fixed cells bind dye roughly in proportion to their protein.

Assay [2] relates to colon cancer cell lines (HCT-116). Nature of the assay: SRB screening of inhibitory activity against colon cancer cell lines (HCT-116). Particulars: HCT-116 cells, compound concentration 1×10^−4 M, 72 hours incubation, SRB method, A560; for inhibition at 100 µM: Homo sapiens, read-out: Inhibitory ratio (%). The assay is classed as cell-based.
From the text: as §1, §2, §3, §4

The structures appear in SMILES notation.

Turning to `Cc1csc2ncnc(OCc3cc(-c4ccccc4)no3)c12` [Compound S-1, 5-methyl-4-((3-phenyl-isoxazol-5-yl)-methoxy-)-thieno[2,3-d]pyrimidine], the inhibition at 100 µM in assay [1] amounted to 85%.

Take `Cc1csc2ncnc(OCc3cc(-c4ccc(Cl)cc4)no3)c12` [Compound S-5]: in assay [1], the inhibition at 100 µM came out at 80.8%.

On to `Cc1sc2ncnc(OCc3cc(-c4ccccc4Cl)no3)c2c1C` [Compound S-106], for which, in assay [1], the inhibition at 100 µM was found to be 71.6%.

Take `CCc1cc2c(OCc3cc(-c4ccc(OC)cc4)no3)ncnc2s1` [Compound S-83]: the inhibition at 100 µM was determined as 69.6% in assay [2] and 89.4% in assay [1].

For the compound `COc1ccc(-c2cc(COc3ncnc4sc(C)c(C)c34)on2)cc1` [Compound S-103], the inhibition at 100 µM in assay [2] came out at 71.1%.

For `Cc1sc2ncnc(OCc3cc(-c4ccccc4)no3)c2c1C` [Compound S-101], the inhibition at 100 µM in assay [2] came to 68.8%. In assay [1], the “Inhibitory ratio (%)” value was determined as 88.0% and the inhibition at 100 µM came out at 88%.

On to `Cc1csc2ncnc(OCc3cc(-c4ccccc4Cl)no3)c12` [Compound S-6], for which the inhibition at 100 µM in assay [1] came out at 75.6%.

On to `CCc1cc2c(OCc3cc(-c4ccc(Cl)cc4Cl)no3)ncnc2s1` [Compound S-87], for which the inhibition at 100 µM in assay [2] amounted to 72.7%.

Take `Cc1csc2ncnc(OCc3cc(-c4ccc(Br)cc4)no3)c12` [Compound S-8]: the inhibition at 100 µM in assay [1] is 85.9%.

Consider `Cc1ccc(-c2cc(COc3ncnc4sc(C)c(C)c34)on2)cc1` [Compound S-102], for which the inhibition at 100 µM in assay [2] was found to be 62.9%.

For the compound `Cc1ccc(-c2cc(COc3ncnc4scc(C)c34)on2)cc1` [Compound S-2], the inhibition at 100 µM in assay [1] stood at 80%.

For `CCc1cc2c(OCc3cc(-c4ccc(Br)cc4)no3)ncnc2s1` [Compound S-88], in assay [2], the inhibition at 100 µM amounted to 60.9%.

On to `COc1ccc(-c2cc(COc3ncnc4scc(C)c34)on2)cc1` [Compound S-3], for which, in assay [2], the “Inhibitory ratio (%)” value came out at 70.0%. For the same compound, the inhibition at 100 µM worked out at 70% in assay [2] and 86.4% in assay [1].

`Cc1sc2ncnc(OCc3cc(-c4ccc(Cl)cc4Cl)no3)c2c1C` [Compound S-107]: the inhibition at 100 µM in assay [2] is 72.9%.

Turning to `c1ccc(-c2cc(COc3ncnc4sc5c(c34)CCCC5)on2)cc1` [Compound S-121], the inhibition at 100 µM in assay [1] is 54.1%.
